# Test results published in patent US6495594B2, “Biologically active analogs of discodermolide” (Harbor Branch Oceanographic Institution, Inc., priority 2000, dated 2002).
# Entries after “also recorded” stand apart in the source; their conditions may differ.
# Key:
# [1] = tested on: P388 murine leukemia cell lines; assay: In vitro proliferation of P388 cells (MTT); assay type: cell-based; settings: 48-h exposure; for IC50: value in parentheses
# Protocol: (§1) Discodermolide and discodermolide analogs were analyzed as to their effects on proliferation of A549 human adenocarcinoma and P388 murine leukemia cell lines. P388 cells were obtained from Dr. R. Camalier, National Cancer Institute, Bethesda, MD, and A549 cells were obtained from American Type Culture Collection, Rockville, MD. All cell lines were maintained in tissue culture medium (TCM; Roswell Park Memorial Institute RPMI 1640 supplemented with 100 U/mL penicillin, […], 60 […], 18 mM HEPES, 0.05 mg/mL gentamicin (Life Technologies, Gaithersburg, MD) and 10% fetal bovine serum) and cultured in plastic tissue culture flasks at 37° C. in humidified air containing 5% CO2. Stock cultures of P388 cells were subcultured 1:20 in fresh TCM every 2 to 3 days. Stock cultures of A549 cells were subcultured 1:10 every 3 to 4 days. To assess the antiproliferative effects of agents against the cells, 200 μL cultures (96-well tissue culture plates, Nunc, Denmark) were established at 1 ×10^5 cells/mL in TCM or TCM containing the test agent at 0.03-5.0 μg/mL. After 48-h exposures, P388 cells were enumerated using 3-[4,5-dimethylthiazol-2-yl]-2,5-diphenyltetrazolium bromide (MTT) as described in the literature (M. C. Alley, et al., Cancer Res. 48:589, 1988). A549 cells were enumerated in the same manner after 72 hours exposure. The results were expressed as percent inhibition compared to the negative (no drug) control. Positive drug controls of varying dilutions of 5-fluorouracil and adriamycin (Sigma Chemical Co., St Louis, MO) were included to monitor drug sensitivity of the cell line.
# (§2) To quantitate the effects on cell proliferation and resulting IC50 values, 75 μL of warm growth media containing 5 mg/mL MTT is added to each well, cultures returned to the incubator, and left undisturbed for 3 hours. To spectrophotometrically quantitate formation of reduced formazan, plates are centrifuged (500×g, 10 minutes), culture fluids removed by aspiration, and 200 μL of acidified isopropanol (2 mL concentrated HCl /liter isopropanol) added per well. The absorbance of the resulting solutions is measured in a plate reader (TECAN Spectra SLT; TECAN U.S., Research Triangle Park, N.C.) at 570 nm and a 650 nm reference filter. The absorbance of test wells is divided by the absorbance of drug-free wells, and the concentration of agent that results in 50% of the absorbance of untreated cultures (IC50) is determined by linear regression of logit-transformed data (D. J. Finney, Statistical Method in Biological Assay, third ed., pp. 316-348, Charles Griffin Co., London, 1978). A linear relationship between tumor cell number and formazan production has been routinely observed over the range of cell densities observed in these experiments. The two standard drug controls (indicated above) are included in each assay as a check to monitor the drug sensitivity of each of the cell lines and IC50 values are determined for each drug-cell combination.
# [2] = tested on: A549 human adenocarcinoma; assay: In vitro proliferation of A549 cells (MTT); assay type: cell-based; settings: 72 hours exposure; for IC50: value in parentheses
# Protocol: as §1, §2
# [3] = tested on: purified bovine brain tubulin; assay: Tubulin polymerization (optical density at 350 nm); assay type: biochemical; set-up: key to Purified tubulin polymerization by 10 μM / Purified tubulin polymerization at 10 μM: −: no effect; +/−: minimal or questionable effect; +: weak effect; ++: strong effect; +++: very strong effect equivalent to discodermolide; settings: 10 μM compound; for Purified tubulin polymerization by 10 μM / Maximum polymerization relative to that induced by discodermolide / Purified tubulin polymerization at 10 μM: 1 mg/mL tubulin; for Purified tubulin polymerization by 10 μM / Purified tubulin polymerization at 10 μM: subjective rating; for Purified tubulin polymerization by 10 μM: Table 11; for Purified tubulin polymerization at 10 μM: Table 12
# Protocol: Compounds were tested at 10 μM with 1 mg/mL tubulin. The temperature was varied during the course of the experiment as follows: the experiment was begun with an initial temperature of 4° C. and held for 1 minute; the temperature was then increased to 35° C. at a rate of 1° C./minute, held at 35° C. for 1 minute, decreased to 4° C. at a rate of 2° C/minute, and finally held at 4° C. for 14 minutes. The curves shown are for compounds: discodermolide (I); 2-desmethyldiscodermolide (II); 19-desaminocarbonyldiscodermolide (III); 2-epidiscodermolide (IV); and 3-deoxy-2A-discodermolide (VI).
# Compounds were tested at 10 μM with 1 mg/mL tubulin. The temperature was varied during the course of the experiment as follows: the experiment was begun with an initial temperature of 4° C. and held for 1 minute; the temperature was then increased to 35° C. at a rate of 1° C./minute, held at 35° C. for 1 minute, decreased to 4° C. at a rate of 2° C./minute, and finally held at 4° C. for 14 minutes. The curves shown are for discodermolide (I); 8,21,23-hexahydrodiscodermolide (XII) and 7-deoxy-8,21,23-hexahydrodiscodermolide (XIII).
# Polymerization of purified bovine brain tubulin (Cytoskeleton Inc., Denver, Colo.) was followed by changes in the optical density of tubulin solutions at 350 nm in a Hitachi U-3010 spectrophotometer equipped with a SPR-10 electronic thermostatted cell holder. Stock solutions of tubulin were diluted on ice in G-PEM buffer (1 mM GTP, 80 mM PIPES, 1 mM EGTA, 0.5 mM magnesium chloride; pH 6.8) to a final concentration of 1 mg/mL. The instrument was zeroed on this solution at 4° C. Discodermolide, and its analogs, were then added to the tubulin solution to a final concentration of 10 μM, quickly mixed, and the absorbance monitored over a period of 61 minutes. Within this time the temperature of the thermoelectric cell holder was held at 4° C. for 1 minute, increased to 35° C. at a rate of 1° C./minute, reduced back to 4° C. at a rate of 2° C./minute, and held at 4° C. for an additional 14 minutes.
# [4] = tested on: A549 human lung cells; assay: Cell cycle progression by flow cytometry; assay type: cell-based
# Protocol: Cell cycle studies were initiated in order to pinpoint a specific phase within the cell cycle in which discodermolide analogs were exerting their antiproliferative effect. A549 human lung cells were used as cell cycle targets to compare the effects of discodermolide and discodermolide analogs on perturbation of the cell cycle. Cell cycle analyses were performed as follows: A549 cells were incubated at 37° C. in 5% CO2 in air in the presence or absence of varying concentrations of discodermolide or discodermolide analogs for 24 hr. Cells were harvested, fixed in ethanol, washed, and stained with 0.02 mg/mL of propidium iodide (P.I.) together with 0.1 mg/mL of RNAse A. Stained preparations were analyzed on a Coulter EPICS ELITE flow cytometer with 488 nm excitation. Fluorescence measurements and resulting DNA histograms were collected from at least 10,000 P.I. stained cells at an emission wavelength of 690 nm. Raw histogram data was further analyzed using a cell cycle analysis program (Multicycle, Phoenix Flow Systems).
SMILES,IC50 P388 cells [1],IC50 [1],IC50 A549 cells [2],IC50 [2],Level of tubulin polymerization induced [3],Stability of polymerized tubulin when held at 4° C. [3],Purified tubulin polymerization by 10 μM [3],Cell cycle effects ([4]; concentration not given),Maximum polymerization relative to that induced by discodermolide [3],Purified tubulin polymerization at 10 μM [3],"Cell population accumulated in the G2/M phase ([4]; 1000 nM, 24 hour incubation)",Cell cycle effects ([4]; concentrations lower than 1000 nM),"Cell cycle effects (100 nM) ([4]; 100 nM, 24 hr, A549)"
"C=CC=CC(C)C(OC(N)=O)C(C)C(O)C(C)CC(C)=CC(C)C(O)C(C)C=CC(O)CC1OC(=O)CC(O)C1C (stereo not drawn) [2-Desmethyldiscodermolide (II), 2-desmethyldiscodermolide]",0.1 mg/L,0.172 µM,0.07 mg/L,0.12 µM,almost equivalent to those of the parent compound discodermolide,stable,++,very strong apoptotic (sub-G1 peak) effects as well as an increase in the percentage of cells residing in the G2/M phase,,,,,
"C=C/C=C\[C@H](C)[C@H](OC(N)=O)[C@@H](C)[C@H](O)[C@@H](C)C/C(C)=C\[C@H](C)[C@@H](O)[C@@H](C)/C=C\[C@@H](O)C[C@@H]1OC(=O)[C@@H](C)[C@@H](O)[C@H]1C [2-Epidiscodermolide (IV), 2-epidiscodermolide]",0.08 mg/L,0.134 µM,0.04 mg/L,0.067 µM,low levels,relatively stable,++,Apoptosis and weak G2/M block,30-50%,,,,
"CCCCC(C)C(OC(N)=O)C(C)C(O)C(C)CC(C)=CC(C)C(O)C(C)CCCCC1OC(=O)C(C)C(O)C1C (stereo not drawn) [7-deoxy-8,21,23-hexahydrodiscodermolide]",0.18 mg/L,0.309 µM,0.22 mg/L,0.377 µM,low levels,relatively stable,,,39%,++,Approximately 50%,did not produce any cell cycle effects,
"CCCCC(C)C(OC(N)=O)C(C)C(O)C(C)CC(C)=CC(C)C(O)C(C)CCC(O)CC1OC(=O)C(C)C(O)C1C (stereo not drawn) [8,21,23-Hexahydrodiscodermolide (XII), 8,21,23-hexahydrodiscodermolide]",0.02 mg/L,0.0338 µM,0.04 mg/L,0.0677 µM,strong,relatively stable,,,approximately 80%,+++,,,small percent increase in the cells accumulated at the G2/M phase; also recorded: high percentage of apoptosis
"C=CC=CC(C)C(O)C(C)C(O)C(C)CC(C)=CC(C)C(O)C(C)C=CC(O)CC1OC(=O)C(C)C(O)C1C (stereo not drawn) [19-Desaminocarbonyldiscodermolide (III), 19-desaminocarbonyldiscodermolide]",0.07 mg/L,0.128 µM,0.045 mg/L,0.074 µM,low levels,relatively stable,+,Strong apoptosis; moderate G2/M block,30-50%,,,,
